Results published in paper PMC10026764, “Overcoming the imatinib-resistant BCR-ABL mutants with new ureidobenzothiazole chemotypes endowed with potent and broad-spectrum anticancer activity” (Journal of Enzyme Inhibition and Medicinal Chemistry, 2023).
Read-outs that look alike come from different tables or passages of the source.

Assays:
SW-620 = assay: NCI-60 five-dose SRB assay; assay type: cell-based; conditions: Homo sapiens; SW-620, colon cancer
IGROV1 = assay: NCI-60 five-dose SRB assay; assay type: cell-based; conditions: Homo sapiens, IGROV-1; IGROV1, ovarian cancer
SF-268 = assay: NCI-60 five-dose SRB assay; assay type: cell-based; conditions: Homo sapiens; SF-268, CNS cancer
HOP-92 = assay: NCI-60 five-dose SRB assay; assay type: cell-based; conditions: Homo sapiens; HOP-92, non-small cell lung cancer
UACC-62 = assay: NCI-60 five-dose SRB assay; assay type: cell-based; conditions: Homo sapiens; UACC-62, melanoma
SK-MEL-5 = assay: cells; assay type: cell-based; conditions: SK-MEL-5, melanoma; for GI50 / LC50 (50% lethal concentration): Homo sapiens
TK-10 = assay: NCI-60 five-dose SRB assay; assay type: cell-based; conditions: Homo sapiens; TK-10, renal cancer
OVCAR-4 [1] = assay: NCI-60 five-dose SRB assay; assay type: cell-based; conditions: Homo sapiens; OVCAR-4, ovarian cancer
U251 = assay: cells; assay type: cell-based; conditions: U251, CNS cancer; for GI50 / CC50: Homo sapiens, U-251; for CC50: read-out: LC50 (the source's name)
OVCAR-8 = assay: NCI-60 five-dose SRB assay; assay type: cell-based; conditions: Homo sapiens; OVCAR-8, ovarian cancer
MOLT-4 = assay: NCI-60 five-dose SRB assay; assay type: cell-based, human; conditions: MOLT-4, leukaemia; for GI50 / CC50: Homo sapiens; for CC50: read-out: LC50 (the source's name)
A498 = assay: NCI-60 five-dose SRB assay; assay type: cell-based; conditions: Homo sapiens; A498, renal cancer
KM12 [2] = assay: NCI-60 five-dose SRB assay; assay type: cell-based; conditions: Homo sapiens; KM12, colon cancer
OVCAR-3 = assay: NCI-60 five-dose SRB assay; assay type: cell-based, human; conditions: OVCAR-3, ovarian cancer; for GI50 / LC50 (concentration killing 50% of cells): Homo sapiens
M14 = assay: NCI-60 five-dose SRB assay; assay type: cell-based, human; conditions: M14, melanoma; for GI50 / LC50 (concentration killing 50% of cells): Homo sapiens
HT29 = assay: NCI-60 five-dose SRB assay; assay type: cell-based, human; conditions: HT29, colon cancer; for GI50 / CC50: Homo sapiens, HT-29; for CC50: read-out: LC50 (the source's name)
MDA-MB-435 = assay: NCI-60 five-dose SRB assay; assay type: cell-based; conditions: Homo sapiens; MDA-MB-435, melanoma
MDA-MB-231 = assay: NCI-60 five-dose SRB assay; assay type: cell-based; conditions: Homo sapiens; MDA-MB-231, breast cancer
NCI-H522 [3] = assay: NCI-60 five-dose SRB assay; assay type: cell-based, human
NCI 60-cell line panel = assay: cells; assay type: cell-based
HS 578T [4] = assay: NCI-60 five-dose SRB assay; assay type: cell-based; conditions: Homo sapiens, breast cancer
K-562 [5] = assay: NCI-60 five-dose SRB assay; assay type: cell-based, human; conditions: K-562, leukaemia
DU-145 = assay: NCI-60 five-dose SRB assay; assay type: cell-based, human; conditions: DU-145, prostate cancer; for GI50 / CC50: Homo sapiens; for CC50: read-out: LC50 (the source's name)
HCC-2998 = assay: NCI-60 five-dose SRB assay; assay type: cell-based; conditions: Homo sapiens; HCC-2998, colon cancer
A549/ATCC [6] = assay: NCI-60 five-dose SRB assay; assay type: cell-based; conditions: Homo sapiens, non-small cell lung cancer
SF-295 = assay: NCI-60 five-dose SRB assay; assay type: cell-based; conditions: Homo sapiens; SF-295, CNS cancer
SNB-75 = assay: NCI-60 five-dose SRB assay; assay type: cell-based, human; conditions: SNB-75, CNS cancer; for GI50 / CC50: Homo sapiens; for CC50: read-out: LC50 (the source's name)
CAKI-1 = assay: NCI-60 five-dose SRB assay; assay type: cell-based; conditions: Homo sapiens; CAKI-1, renal cancer
MCF7 = system: MCF7; set-up: method as in earlier work; conditions: imatinib mesylate NSC 743414, NCI data; cited from earlier work
NCI/ADR-RES = system: NCI/ADR-RES; set-up: method as in earlier work; conditions: imatinib mesylate NSC 743414, NCI data; cited from earlier work
NCI-H522 [7] = system: NCI-H522; set-up: method as in earlier work; conditions: imatinib mesylate NSC 743414, NCI data; cited from earlier work
SNB-19 = system: SNB-19; set-up: method as in earlier work; conditions: imatinib mesylate NSC 743414, NCI data; cited from earlier work
T-47D = system: T-47D; set-up: method as in earlier work; conditions: imatinib mesylate NSC 743414, NCI data; cited from earlier work
SN12C = system: SN12C; set-up: method as in earlier work; conditions: imatinib mesylate NSC 743414, NCI data; cited from earlier work
OVCAR-4 [8] = system: OVCAR-4; set-up: method as in earlier work; conditions: imatinib mesylate NSC 743414, NCI data; cited from earlier work
HCT-15 = system: HCT-15; set-up: method as in earlier work; conditions: imatinib mesylate NSC 743414, NCI data; cited from earlier work
A549/ATCC [9] = system: A549/ATCC; set-up: method as in earlier work; conditions: imatinib mesylate NSC 743414, NCI data; cited from earlier work
K-562 [10] = system: K-562; set-up: method as in earlier work; conditions: imatinib mesylate NSC 743414, NCI data; cited from earlier work
KM12 [11] = system: KM12; set-up: method as in earlier work; conditions: imatinib mesylate NSC 743414, NCI data; cited from earlier work
HS 578T [12] = system: HS 578T; set-up: method as in earlier work; conditions: imatinib mesylate NSC 743414, NCI data; cited from earlier work
[13] = Homo sapiens, NCI-H522, NCI-H522, non-small cell lung cancer
[14] = Homo sapiens, 60 cell, all tested melanoma cell lines, read-out: GI50
[15] = Homo sapiens, COLO205, HCC-2998, HCT-116 and HCT-15 colon cancer cells, read-out: GI50

Question: For CCN1CCN(c2ccc(NC(=O)Nc3nc4ccc(-c5ccccc5OC)cc4s3)cc2)CC1 [Compound 2b], which GI50 (SW-620) is on record?
Answer: 1940 nM

Question: And the GI50 (IGROV1)?
Answer: 1870 nM

Question: What about the GI50 (SF-268) of the same compound?
Answer: 1870 nM

Question: What about the GI50 (HOP-92) of the same compound?
Answer: 1470 nM

Question: And the GI50 (UACC-62)?
Answer: 1870 nM

Question: And the GI50 (SK-MEL-5)?
Answer: 1730 nM

Question: What about the LC50 (50% lethal concentration) (SK-MEL-5) of the same compound?
Answer: 5630 nM

Question: And the TGI (SK-MEL-5)?
Answer: 3120 nM

Question: And the GI50 (TK-10)?
Answer: 2120 nM

Question: What about the GI50 (OVCAR-4 [1]) of the same compound?
Answer: 1680 nM

Question: What about the GI50 (U251) of the same compound?
Answer: 1570 nM

Question: And the CC50 (U251)?
Answer: 5510 nM

Question: And the TGI (U251)?
Answer: 2940 nM

Question: What about the GI50 (OVCAR-8) of the same compound?
Answer: 1990 nM

Question: And the GI50 (MOLT-4)?
Answer: 1800 nM

Question: And the CC50 (MOLT-4)?
Answer: 7450 nM

Question: What about the TGI (MOLT-4) of the same compound?
Answer: 3670 nM

Question: And the GI50 (A498)?
Answer: 1800 nM

Question: What about the GI50 (KM12 [2]) of the same compound?
Answer: 1750 nM

Question: What about the GI50 (OVCAR-3) of the same compound?
Answer: 1640 nM

Question: And the LC50 (concentration killing 50% of cells) (OVCAR-3)?
Answer: 5900 nM

Question: And the TGI (OVCAR-3)?
Answer: 3110 nM

Question: What about the GI50 (M14) of the same compound?
Answer: 1620 nM

Question: And the LC50 (concentration killing 50% of cells) (M14)?
Answer: 5660 nM

Question: And the TGI (M14)?
Answer: 3030 nM

Question: And the TGI (HT29)?
Answer: 2700 nM

Question: What about the GI50 (HT29) of the same compound?
Answer: 1310 nM

Question: And the CC50 (HT29)?
Answer: 5570 nM

Question: And the GI50 (MDA-MB-435)?
Answer: 1710 nM

Question: What about the GI50 (MDA-MB-231) of the same compound?
Answer: 1720 nM

Question: And the GI50 (NCI-H522 [3]; [13])?
Answer: ~1760 nM

Question: And the GI50 (NCI-H522 [3]; NCI-H522, non-small cell lung cancer)?
Answer: 1750 nM

Question: And the GI50 (NCI 60-cell line panel; Homo sapiens, 60 cell, all ovarian cancer cell lines, read-out: GI50)?
Answer: < 2000 nM

Question: What about the GI50 (NCI 60-cell line panel; [14]) of the same compound?
Answer: 1540 to 2510 nM

Question: And the LC50 (NCI 60-cell line panel; Homo sapiens, 60 cell, several cancer cells)?
Answer: < 10000 nM

Question: And the GI50 (NCI 60-cell line panel; [15])?
Answer: 1070 to 2650 nM

Question: What about the GI50 (NCI 60-cell line panel; all examined cell lines) of the same compound?
Answer: one-digit micromolar

Question: What about the TGI (NCI 60-cell line panel; several cancer cells) of the same compound?
Answer: < 5000 nM

Question: And the GI50 (HS 578T [4])?
Answer: 1950 nM

Question: What about the GI50 (K-562 [5]; Homo sapiens, K562) of the same compound?
Answer: 293 nM

Question: And the TGI (K-562 [5])?
Answer: 1340 nM

Question: What about the TGI (DU-145) of the same compound?
Answer: 3260 nM

Question: What about the GI50 (DU-145) of the same compound?
Answer: 1740 nM

Question: What about the CC50 (DU-145) of the same compound?
Answer: 6080 nM

Question: What about the GI50 (HCC-2998) of the same compound?
Answer: 1830 nM

Question: And the GI50 (A549/ATCC [6])?
Answer: 1980 nM

Question: What about the GI50 (SF-295) of the same compound?
Answer: 1680 nM

Question: And the GI50 (SNB-75)?
Answer: 1490 nM

Question: What about the CC50 (SNB-75) of the same compound?
Answer: 5460 nM

Question: And the TGI (SNB-75)?
Answer: 2860 nM

Question: What does the source list for COc1ccccc1-c1ccc2nc(NC(=O)Nc3cc(C(F)(F)F)cc(C(F)(F)F)c3)sc2c1 [Compound 2e]?
Answer: GI50 (SW-620): 3040 nM; GI50 (IGROV1): 2830 nM; GI50 (SF-268): 2860 nM; GI50 (HOP-92): 1190 nM; GI50 (UACC-62): 1560 nM; GI50 (SK-MEL-5): 1570 nM; LC50 (50% lethal concentration) (SK-MEL-5): 5640 nM; TGI (SK-MEL-5): 2980 nM; GI50 (TK-10): 4030 nM; GI50 (OVCAR-4 [1]): 2120 nM; GI50 (U251): 2310 nM; CC50 (U251): 34400 nM; TGI (U251): 10300 nM; GI50 (OVCAR-8): 3040 nM; GI50 (MOLT-4): 1590 nM; CC50 (MOLT-4): 51300 nM; TGI (MOLT-4): 7240 nM; GI50 (A498): 1640 nM; GI50 (KM12 [2]): 2070 nM; GI50 (OVCAR-3): 1580 nM; LC50 (concentration killing 50% of cells) (OVCAR-3): 16700 nM; TGI (OVCAR-3): 4580 nM; GI50 (M14): 1540 nM; LC50 (concentration killing 50% of cells) (M14): 6730 nM; TGI (M14): 3220 nM; TGI (HT29): 9210 nM; GI50 (HT29): 2150 nM; CC50 (HT29): 33000 nM; GI50 (MDA-MB-435): 2270 nM; GI50 (MDA-MB-231): 1950 nM; GI50 (NCI-H522 [3]; [13]): 1760 nM; GI50 (NCI 60-cell line panel; [14]): 1540 to 2510 nM; GI50 (NCI 60-cell line panel; [15]): 1070 to 2650 nM; GI50 (NCI 60-cell line panel; all examined cell lines): one-digit micromolar; GI50 (HS 578T [4]): 2350 nM; GI50 (K-562 [5]; Homo sapiens, K562): 1540 nM; CC50 (K-562 [5]; Homo sapiens, K562, read-out: LC50 (the source's name)): 43900 nM; TGI (K-562 [5]): 8950 nM; TGI (DU-145): 14900 nM; GI50 (DU-145): 4000 nM; CC50 (DU-145): 42400 nM; GI50 (HCC-2998): 2650 nM; GI50 (CAKI-1): 2330 nM; GI50 (A549/ATCC [6]): 3190 nM; GI50 (SF-295): 2640 nM; GI50 (SNB-75): 2250 nM; CC50 (SNB-75): 45300 nM; TGI (SNB-75): 11800 nM

Question: What does the source list for Cc1ccc(NC(=O)c2ccc(CN3CCN(C)CC3)cc2)cc1Nc1nccc(-c2cccnc2)n1 [Imatinib]?
Answer: GI50 (MCF7): 18200 nM; GI50 (NCI/ADR-RES): 23000 nM; GI50 (NCI-H522 [7]): 16400 nM; GI50 (SNB-19): 38600 nM; GI50 (T-47D): 19900 nM; GI50 (SN12C): 33200 nM; GI50 (OVCAR-4 [8]): 20000 nM; GI50 (HCT-15): 20000 nM; GI50 (A549/ATCC [9]): 24500 nM; GI50 (K-562 [10]): 20 nM; GI50 (KM12 [11]): 18800 nM; GI50 (HS 578T [12]): 14600 nM
